For data set [1] the following is noted: cited from earlier work; for Effective pH Range: buffer without pK index; for Effective pH Range (pK1): line labelled pK1; for Effective pH Range (pK2): line labelled pK2; for Effective pH Range (pK3): line labelled pK3; for pKa values for the single buffers, second value: Table 5, in parentheses.
Data set [2] can be described thus: Temperature dependence of pH of buffer solutions, ratiometric UV-vis (A418/A623) with indicator 1. The format is physicochemical. To be noted: for direction of pH change as the solution is equilibrated at lower temperatures: FIG. 4, 50 mM buffer solutions containing 75% glycerol; for pH at plateau: plateau 150 K to 90 K; for pH at 298 K: single buffers.
The nature of data set [3]: Freeze-thaw storage stability of oxacillin solutions in various buffers, HPLC. The format is physicochemical.
For data set [4] the following is noted: cited from earlier work.
The conditions of data set [5]: pH-sensitive dye; cited from earlier work.
The conditions of data set [6]: cited from earlier work. This is another data set of the same source.
[7] abbreviates: Table 3, change in pH with decreasing temperature, pH 6.1 at 298 K.

Several values for one entry are separate records, joined by “and”; a condition that tells them apart may be missing. Equal entries are not always repeated. Residues, ends and D or L forms follow the SMILES beside them.

For the compound `O=S(=O)(O)CCCN1CCOCC1` [MOPS, 3-N-morpholino propansulfonic acid], in data set [1] (Table 2), the “Effective pH Range” value is given as 6.5–7.9. Further, the “direction of pH change as the solution is equilibrated at lower temperatures” value (“direction of pH change … at lower temperatures” for short) in data set [2] is “increases”. For the same compound, the ΔpH result in data set [2] (setting [7]) is “+1.6”. In data set [2] (Table 3, pH 6.1 at 298 K), this compound displayed a pH at plateau of 7.7. The “pH at 298 K” value in data set [2] (Table 3) is 6.1. Moreover, the “increase of pH upon lowering the temperature” value in data set [2] (room temperature to ~170 K, 50 mM, 75% glycerol) is given as “about 1.6 pH unit”. In data set [2] (sample containing 50% glycerol, FIG. 6), the “degree of pH change with temperature, 50% glycerol versus 75% glycerol” value is recorded as “somewhat larger”.

As to `O=S(=O)(O)CCNC1CCCCC1` [CHES], in data set [1] (Table 2), the “Effective pH Range” value is on record as 8.6–10.0.

Regarding `Cc1onc(-c2ccccc2)c1C(=O)N[C@@H]1C(=O)N2[C@@H]1SC(C)(C)[C@@H]2C(=O)O` [oxacillin], in data set [3] (200 μM in 50 mM BisTris Propane buffer pH 7.0, 193 K, freeze-thaw over eight days), the “hydrolysis of the antibiotic on storage, versus HEPES:KPhosphate (60:40) buffered solution” value is “greater hydrolysis”. Besides, the “pH-induced hydrolysis under freeze-thaw storage conditions” value in data set [3] (200 μM in 50 mM HEPES:KPhosphate (60:40) pH 7.0, 193 K, eight days) is recorded as “reduced”.

For `O=S(=O)(O)CC(O)CNC1CCCCC1` (centres unmarked) [CAPSO], in data set [1] (Table 2), the “Effective pH Range” value is recorded as 8.9–10.3.

With `O=C(O)CC(O)(CC(=O)O)C(=O)O` [citrate], in data set [1] (Table 2), the “Effective pH Range (pK1)” value is on record as 2.2–6.5, the “Effective pH Range (pK2)” value is 3.0–6.2 and the “Effective pH Range (pK3)” value was 5.5–7.2.

For the compound `O=S(=O)(O)CC(O)CNC(CO)(CO)CO` (centres unmarked) [TAPSO], the “Effective pH Range” value in data set [1] (Table 2) is 7.0–8.2.

Regarding `O=S(=O)(O)CCCCNC(CO)(CO)CO` [TABS], in data set [1] (Table 2), the “Effective pH Range” value is reported as 8.2–9.6.

Regarding `NC(=O)CNCCS(=O)(=O)O` [ACES], in data set [1] (Table 2), the “Effective pH Range” value is reported as 6.1–7.5.

Consider `c1c[nH]cn1` [imidazole], for which the “Effective pH Range” value in data set [1] (Table 2) is on record as 6.2–7.8.

`O=S(=O)(O)CC(O)CN(CCO)CCO` (centres unmarked) [DIPSO]: the “Effective pH Range” value in data set [1] (Table 2) was 7.0–8.2.

As for `N` [ammonium hydroxide], the “Effective pH Range” value in data set [1] (Table 2) was 8.8–9.9.

For the compound `COc1cccc2c1C(=O)c1c(O)c3c(c(O)c1C2=O)C[C@@](O)(C(=O)CO)C[C@@H]3O[C@H]1C[C@H](N)[C@H](O)[C@H](C)O1` [doxorubicin], in data set [4] (freeze (−20° C.)-thaw (+37° C.), correlates with hydrolysis of the aminoglycoside bond), the “therapeutic activity upon repeated freeze-thaw treatments” value is given as “gradually reduces therapeutic activity”. Further, the “optimum pH for storage stable, ready-to-use formulations” value in data set [4] (storage at 4-8° C.) is listed as 3.0.

On to `O=S(=O)(O)CCN1CCOCC1` [MES, 2-morpholinoethanesulfonic acid], for which, in data set [2] (Table 3, change in pH with decreasing temperature, pH 6.0 at 298 K), the ΔpH entry is “+1.4”. In data set [2] (Table 3, pH 6.0 at 298 K), this compound returned a pH at plateau of 7.4. The “pH at 298 K” value in data set [2] (Table 3) was determined as 6.0.

As for phosphate, in data set [1] (Table 2), the “Effective pH Range (pK1)” value is given as 1.7–2.9, the “Effective pH Range (pK2)” value is 5.8–8.0 and the “Effective pH Range (pK3)” value is listed as 11.5–13.0.

On to `CC(N)(CO)CO` [AMPD, 2-amino-2-methyl-1,3-propanediol], for which, in data set [1] (Table 2), the “Effective pH Range” value is 7.8–9.7.

As to `CC(=O)O` [acetate], the “direction of pH change … at lower temperatures” value in data set [2] is on record as “increases”.

In the case of `O=S(=O)(O)CCCNC1CCCCC1` [CAPS], the “Effective pH Range” value in data set [1] (Table 2) is on record as 9.7–11.1.

Consider `C1CNCCN1` [piperazine], for which, in data set [1] (Table 2), the “Effective pH Range (pK1)” value is 5.0–6.0 and the “Effective pH Range (pK2)” value is recorded as 9.5–9.8.

Turning to `O=C(O)CNC(CO)(CO)CO` [tricine], the “Effective pH Range” value in data set [1] (Table 2) was 7.4–8.8.

On to `O=S(=O)(O)CCN1CCN(CCS(=O)(=O)O)CC1` [PIPES], for which, in data set [1] (Table 2), the “Effective pH Range” value is listed as 6.1–7.5.

Turning to `O=C(O)C(O)C(O)C(=O)O` (centres unmarked) [Tartrate], the “pKa values for the single buffers, second value” in data set [1] is listed as “(3.00, 4.40)^1”.

In the case of `Cc1c(C2(c3cc(Br)c(O)c(Br)c3C)OS(=O)(=O)c3ccccc32)cc(Br)c(O)c1Br` [Bromocresol green], in data set [5], the pKa (in general, the negative logarithm of the acid dissociation constant) was 4.6.

`O=P(O)(O)OP(=O)(O)O` [pyrophosphate]: the “Effective pH Range” value in data set [1] (Table 2) was 7.0–9.0.

Consider `CC(C)(N)CO` [AMP, 2-amino-2-methyl-1-propanol], for which the “Effective pH Range” value in data set [1] (Table 2) is listed as 8.7–10.4.

`O=S(=O)(O)CCCNC(CO)(CO)CO` [TAPS]: the “Effective pH Range” value in data set [1] (Table 2) was 7.7–9.1.

Turning to `NC(CO)(CO)CO` [Trizma, 2-Amino-2-(hydroxymethyl)-1,3-propanediol], the “Effective pH Range” value in data set [1] (Table 2) is reported as 7.5–9.0. For the same compound, the “direction of pH change … at lower temperatures” value in data set [2] was “increases”. Further, in data set [2] (Table 3, change in pH with decreasing temperature, pH 7.0 at 298 K), the ΔpH result is listed as “+2.2”. The compound further came in with a pH at plateau in data set [2] (Table 3, pH 7.0 at 298 K) of 9.2. In addition, the “pH at 298 K” value in data set [2] (Table 3) was 7.0.

`CC(=O)[O-].[Na+]` [Na-Acetate, sodium acetate] had a pH at plateau in data set [2] (Table 3, pH 5.0 at 298 K) of 5.4. Moreover, the “pH at 298 K” value in data set [2] (Table 3) was 5.0. In data set [2] (pH 5), the ΔpH result is “+0.4”.

As for “thrombin-activated porcine factor VIII: thrombin-activated porcine factor VIII, heterotrimeric coagulation protein”, in data set [6] (between pH 7 and 8), the “coagulation activity between pH 7 and 8” value was “sharp decline”. Also, the “state of the protein at pH 6.0” value in data set [6] (pH 6.0 at 4° C. or 20° C.) is “stable, active, heterotrimer”.

In the case of `O=S(=O)(O)CCCCN1CCN(CCO)CC1` [HEPBS], the “Effective pH Range” value in data set [1] (Table 2) is 7.6–9.0.

Regarding `O=S(=O)(O)CC(O)CN1CCN(CC(O)CS(=O)(=O)O)CC1` (centres unmarked) [POPSO], the “Effective pH Range” value in data set [1] (Table 2) is 7.2–8.5.

With `OCC(CO)(CO)NCCCNC(CO)(CO)CO` [BIS-TRIS propane, 1,3-bis[tris(hydroxymethyl)methylamino]propane], in data set [1] (Table 2), the “Effective pH Range” value is listed as 6.3–9.5. In addition, in data set [1] (Table 2, pK2 or second value printed in the cell), the “pKa at 25° C., pK2” value was 9.00. Further, the “pKa values for the single buffers, second value” in data set [1] was 9.0. Further, the ΔpH entry in data set [2] (setting [7]) is “+2.1”. The compound further gave a pH at plateau in data set [2] (Table 3, pH 6.1 at 298 K) of 8.2. The “pH at 298 K” value in data set [2] (Table 3) is 6.1.

As to `O=S(=O)(O)CCCCNC1CCCCC1` [CABS], the “Effective pH Range” value in data set [1] (Table 2) was 10.0–11.4.

Take `O=C(O)CC(O)C(=O)O` (centres unmarked) [malate]: in data set [1] (Table 2), the “Effective pH Range (pK1)” value was 2.7–4.2 and the “Effective pH Range (pK2)” value was 4.0–6.0.

For `CC(C)(CO)NCC(O)CS(=O)(=O)O` (centres unmarked) [AMPSO], the “Effective pH Range” value in data set [1] (Table 2) is on record as 8.3–9.7.

Turning to `O=P(O)(O)O` [KPhosphate, potassium phosphate], the “ΔpH over a 208 K range” value in data set [2] (298 K to 90 K, 50 mM buffer, pH 7.0) is −0.50. Besides, the “direction of pH change … at lower temperatures” value in data set [2] is recorded as “decreases”. Moreover, the pH at plateau worked out at 6.5 in data set [2] (Table 3, pH 7.0 at 298 K) and 7.3 in data set [2] (Table 3, pH 8.0 at 298 K). Besides, the “pH at 298 K” value in data set [2] (Table 3) was 8.0 and 7.0. The ΔpH in data set [2] (pH 7) was −0.5; in data set [2] (pH 8), −0.7. This compound also yielded a pH change in data set [2] (starting from pH 8.0, indicator 1) of about −0.7 units.

For `NCC(=O)NCC(=O)O` [glycylglycine] (H-Gly-Gly-OH), in data set [1] (Table 2), the “Effective pH Range (pK1)” value is listed as 2.5–3.8 and the “Effective pH Range (pK2)” value is listed as 7.5–8.9. In addition, in data set [1] (Table 2, pK1 or first value printed in the cell), the “pKa at 25° C., pK1” value is listed as 3.14.

As for `NCC(=O)O` [glycine], in data set [1] (Table 2), the “Effective pH Range (pK1)” value is on record as 2.2–3.6 and the “Effective pH Range (pK2)” value was 8.8–10.6.

In the case of `O=C(O)O` [carbonate], in data set [1] (Table 2), the “Effective pH Range (pK1)” value was 6.0–8.0 and the “Effective pH Range (pK2)” value is reported as 9.5–11.1.

These data come from patent US8183046B2, “Temperature resistant pH buffers for use at low temperatures” (The Board of Trustees of the University of Illinois, priority 2007, dated 2012).
